Results published in patent US9738634B2, “Heterocyclic amide compound and herbicide” (SYNGENTA PARTICIPATIONS AG, priority 2013, dated 2017).

Key:
Type in all cases: in vivo
barnyard grass [1] = assay: Test Example 1: weedkilling efficacy, preemergent weed treatment in the submerged state; A: barnyard grass; details: treatment dosage 252 g/ha
Outline: (§1)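 Pre-emergence application onto floodwater (4 cm, alluvial soil) on the day of sowing, dose expressed as g/ha from diluted emulsion formulation. Weeds sown with 2.5-leaf transplanted rice as crop; plants held at 25–30 °C in greenhouse and scored against assessment criteria after 3 weeks.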

bulrush [2] = assay: Test Example 1: weedkilling efficacy, preemergent weed treatment in the submerged state; B: bulrush; details: treatment dosage 252 g/ha
Outline: as §1

oval-leafed pondweed [3] = assay: Test Example 1: weedkilling efficacy, preemergent weed treatment in the submerged state; C: oval-leafed pondweed; details: treatment dosage 252 g/ha
Outline: as §1

transplanted rice = assay: Test Example 1: preemergent weed treatment in the submerged state, effect on crop; a: transplanted rice; details: treatment dosage 252 g/ha
Outline: as §1

barnyard grass [4] = assay: Test Example 2: weedkilling efficacy, growth period weed treatment in the submerged state; A: barnyard grass; details: treatment dosage 252 g/ha
Outline: (§2)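 Weeds treated at the 1-2 leaf stage by application of diluted emulsion onto floodwater (4 cm depth, alluvial soil) at specified g/ha. Grown in greenhouse at 25 to 30° C; herbicidal effect rated three weeks after treatment.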

bulrush [5] = assay: Test Example 2: weedkilling efficacy, growth period weed treatment in the submerged state; B: bulrush; details: treatment dosage 252 g/ha
Outline: as §2

oval-leafed pondweed [6] = assay: Test Example 2: weedkilling efficacy, growth period weed treatment in the submerged state; C: oval-leafed pondweed; details: treatment dosage 252 g/ha
Outline: as §2

crabgrass [7] = assay: Test Example 3: weedkilling efficacy through soil treatment; D: crabgrass; details: treatment dosage 315 g/ha
Outline: (§3)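 Crop and weed responses were judged three weeks after a uniform surface spray of the water-diluted emulsion at the given g/ha rate. Seeds sat beneath about 1.5 cm of sterilized diluvial soil, and boxes stood in a greenhouse at 25 to 30° C.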

green foxtail [8] = assay: Test Example 3: weedkilling efficacy through soil treatment; E: green foxtail; details: treatment dosage 315 g/ha
Outline: as §3

wild oat = assay: Test Example 3: weedkilling efficacy through soil treatment; G: wild oat; details: treatment dosage 315 g/ha
Outline: as §3

black-grass [9] = assay: Test Example 3: weedkilling efficacy through soil treatment; H: black-grass; details: treatment dosage 315 g/ha
Outline: as §3

Italian ryegrass [10] = assay: Test Example 3: weedkilling efficacy through soil treatment; I: Italian ryegrass; details: treatment dosage 315 g/ha
Outline: as §3

Indian mallow [11] = assay: Test Example 3: weedkilling efficacy through soil treatment; K: Indian mallow; details: treatment dosage 315 g/ha
Outline: as §3

redroot pigweed [12] = assay: Test Example 3: weedkilling efficacy through soil treatment; L: redroot pigweed; details: treatment dosage 315 g/ha
Outline: as §3

fig-leafed goosefoot [13] = assay: Test Example 3: weedkilling efficacy through soil treatment; M: fig-leafed goosefoot; details: treatment dosage 315 g/ha
Outline: as §3

chickweed [14] = assay: Test Example 3: weedkilling efficacy through soil treatment; N: chickweed; details: treatment dosage 315 g/ha
Outline: as §3

birds-eye speedwell [15] = assay: Test Example 3: weedkilling efficacy through soil treatment; p: birds-eye speedwell; details: treatment dosage 315 g/ha
Outline: as §3

directly sown rice [16] = assay: Test Example 3: soil treatment, effect on crop; b: directly sown rice; details: treatment dosage 315 g/ha
Outline: as §3

corn [17] = assay: Test Example 3: soil treatment, effect on crop; c: corn; details: treatment dosage 315 g/ha
Outline: as §3

soybean [18] = assay: Test Example 3: soil treatment, effect on crop; d: soybean; details: treatment dosage 315 g/ha
Outline: as §3

wheat [19] = assay: Test Example 3: soil treatment, effect on crop; e: wheat; details: treatment dosage 315 g/ha
Outline: as §3

beet [20] = assay: Test Example 3: soil treatment, effect on crop; f: beet; details: treatment dosage 315 g/ha
Outline: as §3

crabgrass [21] = assay: Test Example 4: weedkilling efficacy by foliar treatment; D: crabgrass; details: treatment dosage 315 g/ha
Outline: (§4)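 Seeds are spot-sown into sterilized diluvial soil and covered with about 1.5 cm of soil. After 14 days' greenhouse growth at 25 to 30° C, plants are sprayed on stems and leaves with diluted emulsion at the stated g/ha rate, then scored at 3 weeks.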

green foxtail [22] = assay: Test Example 4: weedkilling efficacy by foliar treatment; E: green foxtail; details: treatment dosage 315 g/ha
Outline: as §4

black-grass [23] = assay: Test Example 4: weedkilling efficacy by foliar treatment; H: black-grass; details: treatment dosage 315 g/ha
Outline: as §4

Italian ryegrass [24] = assay: Test Example 4: weedkilling efficacy by foliar treatment; I: Italian ryegrass; details: treatment dosage 315 g/ha
Outline: as §4

Indian mallow [25] = assay: Test Example 4: weedkilling efficacy by foliar treatment; K: Indian mallow; details: treatment dosage 315 g/ha
Outline: as §4

redroot pigweed [26] = assay: Test Example 4: weedkilling efficacy by foliar treatment; L: redroot pigweed; details: treatment dosage 315 g/ha
Outline: as §4

fig-leafed goosefoot [27] = assay: Test Example 4: weedkilling efficacy by foliar treatment; M: fig-leafed goosefoot; details: treatment dosage 315 g/ha
Outline: as §4

chickweed [28] = assay: Test Example 4: weedkilling efficacy by foliar treatment; N: chickweed; details: treatment dosage 315 g/ha
Outline: as §4

catchweed = assay: Test Example 4: weedkilling efficacy by foliar treatment; O: catchweed; details: treatment dosage 315 g/ha
Outline: as §4

birds-eye speedwell [29] = assay: Test Example 4: weedkilling efficacy by foliar treatment; p: birds-eye speedwell; details: treatment dosage 315 g/ha
Outline: as §4

directly sown rice [30] = assay: Test Example 4: foliar treatment, effect on crop; b: directly sown rice; details: treatment dosage 315 g/ha
Outline: as §4

corn [31] = assay: Test Example 4: foliar treatment, effect on crop; c: corn; details: treatment dosage 315 g/ha
Outline: as §4

soybean [32] = assay: Test Example 4: foliar treatment, effect on crop; d: soybean; details: treatment dosage 315 g/ha
Outline: as §4

wheat [33] = assay: Test Example 4: foliar treatment, effect on crop; e: wheat; details: treatment dosage 315 g/ha
Outline: as §4

beet [34] = assay: Test Example 4: foliar treatment, effect on crop; f: beet; details: treatment dosage 315 g/ha
Outline: as §4

| Compound | A (barnyard grass) weedkilling efficacy grade (barnyard grass [1]) | B (bulrush) weedkilling efficacy grade (bulrush [2]) | C (oval-leafed pondweed) weedkilling efficacy grade (oval-leafed pondweed [3]) | a (transplanted rice) effect on crop grade (transplanted rice) | A (barnyard grass) weedkilling efficacy grade (barnyard grass [4]) | B (bulrush) weedkilling efficacy grade (bulrush [5]) | C (oval-leafed pondweed) weedkilling efficacy grade (oval-leafed pondweed [6]) | D (crabgrass) weedkilling efficacy grade (crabgrass [7]) | E (green foxtail) weedkilling efficacy grade (green foxtail [8]) | G (wild oat) weedkilling efficacy grade (wild oat) | H (black-grass) weedkilling efficacy grade (black-grass [9]) | I (Italian ryegrass) weedkilling efficacy grade (Italian ryegrass [10]) | K (Indian mallow) weedkilling efficacy grade (Indian mallow [11]) | L (redroot pigweed) weedkilling efficacy grade (redroot pigweed [12]) | M (fig-leafed goosefoot) weedkilling efficacy grade (fig-leafed goosefoot [13]) | N (chickweed) weedkilling efficacy grade (chickweed [14]) | P (birds-eye speedwell) weedkilling efficacy grade (birds-eye speedwell [15]) | b (directly sown rice) effect on crop grade (directly sown rice [16]) | c (corn) effect on crop grade (corn [17]) | d (soybean) effect on crop grade (soybean [18]) | further results |
| --- | --- | --- | --- | --- | --- | --- | --- | --- | --- | --- | --- | --- | --- | --- | --- | --- | --- | --- | --- | --- | --- |
| CSc1nsc(NC(=O)C(C)(C)N2COC(C)=C(c3ccsc3)C2=O)n1 [B-1-05] | 5 (weed kill ratio 90% or more, (practically complete withering)) | 5 (weed kill ratio 90% or more, (practically complete withering)) | 5 (weed kill ratio 90% or more, (practically complete withering)) | 4 (weed kill ratio 70% or more, less than 90%) | 5 (weed kill ratio 90% or more, (practically complete withering)) | 5 (weed kill ratio 90% or more, (practically complete withering)) | 5 (weed kill ratio 90% or more, (practically complete withering)) | 5 (weed kill ratio 90% or more, (practically complete withering)) | 5 (weed kill ratio 90% or more, (practically complete withering)) | 5 (weed kill ratio 90% or more, (practically complete withering)) | 5 (weed kill ratio 90% or more, (practically complete withering)) | 0 (weed kill ratio 5% or less (practically no effect)) | 4 (weed kill ratio 70% or more, less than 90%) | 4 (weed kill ratio 70% or more, less than 90%) | 5 (weed kill ratio 90% or more, (practically complete withering)) | 4 (weed kill ratio 70% or more, less than 90%) | 5 (weed kill ratio 90% or more, (practically complete withering)) | 5 (weed kill ratio 90% or more, (practically complete withering)) | 1 (weed kill ratio 5% or more, less than 20%) | 0 (weed kill ratio 5% or less (practically no effect)) | e (wheat) effect on crop grade (wheat [19]): 0 (weed kill ratio 5% or less (practically no effect)); f (beet) effect on crop grade (beet [20]): 5 (weed kill ratio 90% or more, (practically complete withering)); D (crabgrass) weedkilling efficacy grade (crabgrass [21]): 5 (weed kill ratio 90% or more, (practically complete withering)); E (green foxtail) weedkilling efficacy grade (green foxtail [22]): 5 (weed kill ratio 90% or more, (practically complete withering)); H (black-grass) weedkilling efficacy grade (black-grass [23]): 5 (weed kill ratio 90% or more, (practically complete withering)); I (Italian ryegrass) weedkilling efficacy grade (Italian ryegrass [24]): 4 (weed kill ratio 70% or more, less than 90%); K (Indian mallow) weedkilling efficacy grade (Indian mallow [25]): 5 (weed kill ratio 90% or more, (practically complete withering)); L (redroot pigweed) weedkilling efficacy grade (redroot pigweed [26]): 5 (weed kill ratio 90% or more, (practically complete withering)); M (fig-leafed goosefoot) weedkilling efficacy grade (fig-leafed goosefoot [27]): 5 (weed kill ratio 90% or more, (practically complete withering)); N (chickweed) weedkilling efficacy grade (chickweed [28]): 4 (weed kill ratio 70% or more, less than 90%); O (catchweed) weedkilling efficacy grade (catchweed): 4 (weed kill ratio 70% or more, less than 90%); P (birds-eye speedwell) weedkilling efficacy grade (birds-eye speedwell [29]): 5 (weed kill ratio 90% or more, (practically complete withering)); b (directly sown rice) effect on crop grade (directly sown rice [30]): 4 (weed kill ratio 70% or more, less than 90%); c (corn) effect on crop grade (corn [31]): 2 (weed kill ratio 20% or more, less than 40%); d (soybean) effect on crop grade (soybean [32]): 0 (weed kill ratio 5% or less (practically no effect)); e (wheat) effect on crop grade (wheat [33]): 0 (weed kill ratio 5% or less (practically no effect)); f (beet) effect on crop grade (beet [34]): 4 (weed kill ratio 70% or more, less than 90%) |
| CC1=C(c2ccsc2)C(=O)N(C(C)(C)C(=O)Nc2cccc(F)n2)CO1 [B-2-04] | 5 (weed kill ratio 90% or more, (practically complete withering)) | 5 (weed kill ratio 90% or more, (practically complete withering)) | 5 (weed kill ratio 90% or more, (practically complete withering)) | 3 (weed kill ratio 40% or more, less than 70%) | 5 (weed kill ratio 90% or more, (practically complete withering)) | 5 (weed kill ratio 90% or more, (practically complete withering)) | 5 (weed kill ratio 90% or more, (practically complete withering)) | 5 (weed kill ratio 90% or more, (practically complete withering)) | 5 (weed kill ratio 90% or more, (practically complete withering)) | 5 (weed kill ratio 90% or more, (practically complete withering)) | 5 (weed kill ratio 90% or more, (practically complete withering)) | 5 (weed kill ratio 90% or more, (practically complete withering)) | 4 (weed kill ratio 70% or more, less than 90%) | 4 (weed kill ratio 70% or more, less than 90%) | 5 (weed kill ratio 90% or more, (practically complete withering)) | 5 (weed kill ratio 90% or more, (practically complete withering)) | 5 (weed kill ratio 90% or more, (practically complete withering)) | 5 (weed kill ratio 90% or more, (practically complete withering)) | 1 (weed kill ratio 5% or more, less than 20%) | 0 (weed kill ratio 5% or less (practically no effect)) | e (wheat) effect on crop grade (wheat [19]): 5 (weed kill ratio 90% or more, (practically complete withering)); f (beet) effect on crop grade (beet [20]): 5 (weed kill ratio 90% or more, (practically complete withering)); D (crabgrass) weedkilling efficacy grade (crabgrass [21]): 5 (weed kill ratio 90% or more, (practically complete withering)); E (green foxtail) weedkilling efficacy grade (green foxtail [22]): 5 (weed kill ratio 90% or more, (practically complete withering)); H (black-grass) weedkilling efficacy grade (black-grass [23]): 5 (weed kill ratio 90% or more, (practically complete withering)); I (Italian ryegrass) weedkilling efficacy grade (Italian ryegrass [24]): 5 (weed kill ratio 90% or more, (practically complete withering)); K (Indian mallow) weedkilling efficacy grade (Indian mallow [25]): 5 (weed kill ratio 90% or more, (practically complete withering)); L (redroot pigweed) weedkilling efficacy grade (redroot pigweed [26]): 5 (weed kill ratio 90% or more, (practically complete withering)); M (fig-leafed goosefoot) weedkilling efficacy grade (fig-leafed goosefoot [27]): 5 (weed kill ratio 90% or more, (practically complete withering)); N (chickweed) weedkilling efficacy grade (chickweed [28]): 4 (weed kill ratio 70% or more, less than 90%); O (catchweed) weedkilling efficacy grade (catchweed): 4 (weed kill ratio 70% or more, less than 90%); P (birds-eye speedwell) weedkilling efficacy grade (birds-eye speedwell [29]): 5 (weed kill ratio 90% or more, (practically complete withering)); b (directly sown rice) effect on crop grade (directly sown rice [30]): 5 (weed kill ratio 90% or more, (practically complete withering)); c (corn) effect on crop grade (corn [31]): 3 (weed kill ratio 40% or more, less than 70%); d (soybean) effect on crop grade (soybean [32]): 4 (weed kill ratio 70% or more, less than 90%); e (wheat) effect on crop grade (wheat [33]): 5 (weed kill ratio 90% or more, (practically complete withering)); f (beet) effect on crop grade (beet [34]): 5 (weed kill ratio 90% or more, (practically complete withering)) |
